# In patent publication US8431597B2, “Benzimidazole derivatives” (Pfizer Inc., priority 2007, dated 2013):
# Where a name gives a salt, the structure may show the parent alone.
# Target: T1, Smoothened (SMO) (Mus musculus, UniProt P56726)
# T1 construct: C3H10T1/2 cells (ATCC #CCL-226) were split and seeded; endogenous in cells; host or cells: C3H10T1/2 (ATCC #CCL-226)
# Assay: Smoothened (SMO)/Sonic Hedgehog (SHh) Transient Transcriptional Activation Assay (Gli-luciferase reporter in C3H10T1/2 cells)
# Assay type: cell-based, murine
# Settings: C3H 10T1/2, 2 μM compound; transfected C3H10T1/2 cells, recombinant human SHh 250 ng/mL, 20 hours, luciferase readout; read-out: SMO CELL % INHIBITION @ 2 μM
# Procedure, shortened: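 C3H10T1/2 cells transiently transfected with a murine Gli-responsive firefly luciferase reporter plus pEGFP were serum-starved 20 h in 0.5% calf serum. Compound (2 μM to 2 nM final) was added with recombinant human SHh at 250 ng/mL final for 20 h at 37 °C. Read-out was Dual-Glo luminescence.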
# T1 sequence (P56726 33-793): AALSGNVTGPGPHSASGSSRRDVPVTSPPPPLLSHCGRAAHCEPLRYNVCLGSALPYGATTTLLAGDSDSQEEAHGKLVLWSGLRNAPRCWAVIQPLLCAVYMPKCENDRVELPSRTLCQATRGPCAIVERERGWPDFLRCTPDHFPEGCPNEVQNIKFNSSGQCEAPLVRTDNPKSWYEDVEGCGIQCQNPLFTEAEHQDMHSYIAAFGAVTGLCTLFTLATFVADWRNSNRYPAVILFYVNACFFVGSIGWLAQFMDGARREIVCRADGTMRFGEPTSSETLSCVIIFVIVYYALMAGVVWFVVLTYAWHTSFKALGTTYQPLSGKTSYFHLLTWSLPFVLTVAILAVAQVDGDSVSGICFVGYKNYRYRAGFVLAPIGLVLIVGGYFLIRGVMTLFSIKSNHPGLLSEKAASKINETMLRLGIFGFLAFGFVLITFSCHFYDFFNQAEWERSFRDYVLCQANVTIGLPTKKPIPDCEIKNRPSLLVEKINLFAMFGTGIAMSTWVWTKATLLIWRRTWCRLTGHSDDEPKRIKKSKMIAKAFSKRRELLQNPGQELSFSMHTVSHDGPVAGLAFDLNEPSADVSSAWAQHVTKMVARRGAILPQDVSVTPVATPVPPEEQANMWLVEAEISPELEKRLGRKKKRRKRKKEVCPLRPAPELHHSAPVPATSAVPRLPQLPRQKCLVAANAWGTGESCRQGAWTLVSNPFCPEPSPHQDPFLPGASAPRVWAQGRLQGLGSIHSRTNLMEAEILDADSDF
row,inhibition at 2 µM,Compound
1,102%,"COc1cc(C(=O)N[C@@H]2CCN(C)[C@@H](c3nc4ccccc4[nH]3)C2)ccc1F [Example 102, N-[(2R,4R)-2-(1H-benzimidazol-2-yl)-1-methylpiperidin-4-yl]-4-fluoro-3-methoxybenzamide trifluoroacetate]"
2,85.2%,"CN1CC[C@@H](NC(=O)Cn2ncc3ccccc32)C[C@@H]1c1nc2ccccc2[nH]1 [Example 109, N-[(2R,4R)-2-(1H-benzimidazol-2-yl)-1-methylpiperidin-4-yl]-2-(1H-indazol-1-yl)acetamide trifluoroacetate]"
3,57.5%,"CN1CC[C@@H](NC(=O)C(F)(F)c2ccccc2)C[C@@H]1c1nc2ccccc2[nH]1 [Example 122, N-[(2R,4R)-2-(1H-benzimidazol-2-yl)-1-methylpiperidin-4-yl]-2(2-difluoro-2-phenylacetamide trifluoroacetate]"
4,111%,"CN1CC[C@@H](NC(=O)Nc2ccncc2)C[C@@H]1c1nc2ccccc2[nH]1 [Example 16, 1-[(2R,4R)-2-(1H-benzimidazol-2-yl)-1-methylpiperidin-4-yl)-3-pyridin-4-ylurea hydrochloride]"
5,87.9%,"CN1CC[C@@H](NC(=O)Nc2ccc(-c3ccccc3)s2)C[C@@H]1c1nc2ccccc2[nH]1 [Example 90, 1-[(2R,4R)-2-(1H-benzimidazol-2-yl)-1-methylpiperidin-4-yl]-3-(5-phenyl-2-thienyl)urea hydrochloride]"

# Second part, the compound before the results:
row,Compound,inhibition at 2 µM
1,"CN1CC[C@@H](NC(=O)Nc2ccc3c(c2)OCCO3)C[C@@H]1c1nc2ccccc2[nH]1 [Example 67, 1-[(2R,4R)-2-(1H-benzimidazol-2-yl)-1-methylpiperidin-4-yl]-3-(2,3-dihydro-1,4-benzodioxin-6-yl)urea hydrochloride]",103%
2,"O=C(N[C@@H]1CCN2CCn3c(nc4ccccc43)[C@H]2C1)c1ccc2c(c1)OCCO2 [Example 12, N-[(2R,13bR)-1,3,4,6,7,13b-hexahydro-2H-pyrido[2′,1′:3,4]pyrazino[1,2-a]benzimidazol-2-yl]-2,3-dihydro-1,4-benzodioxine-6-carboxamide hydrochloride]",64.1%
3,"CC(C)CCN1CC[C@@H](NC(=O)Nc2ccc(C#N)cc2)C[C@@H]1c1nc2ccccc2[nH]1 [Example 60, 1-[(2R,4R)-2-(1H-benzimidazol-2-yl)-1-(3-methylbutyl)piperidin-4-yl]-3-(4-cyanophenyl)urea]",104%
4,"O=C(N[C@@H]1CCN(C2CC2)[C@@H](c2nc3ccccc3[nH]2)C1)c1ccc2c(c1)OCCO2 [Example 125, N-[(2R,4R)-2-(1H-benzimidazol-2-yl)-1-cyclopropylpiperidin-4-yl]-2,3-dihydro-1,4-benzodioxine-6-carboxamide hydrochloride]",102%
5,"COc1ccc2[nH]c([C@H]3C[C@H](NC(=O)c4ccc5c(c4Cl)OCCO5)CCN3C)nc2c1 [Example 146, 5-chloro-N-[(2R,4R)-2-(5-methoxy-1H-benzimidazol-2-yl)-1-methylpiperidin-4-yl]-2,3-dihydro-1,4-benzodioxine-6-carboxamide triflouroacetate]",107%
